According to PubChem BioAssay (NCI):
Where “and” joins values, the source holds several entries; their conditions need not be identical. Equal values may be shown once.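 Tested at 5 concentrations; 48 h exposure; 96-well plates; endpoints linearly interpolated, else capped at highest concentration. Abbreviation: GI50, concentration required for 50% inhibition of growth. TGI: total growth inhibition.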

Experiments:
Test in all cases: growth of human tumour cells (NCI), 48 h
RXF 393 renal = test system: RXF 393 renal
HS 578T breast = test system: HS 578T breast
MDA-MB-435 = test system: MDA-MB-435
786-0 renal = test system: 786-0 renal
CCRF-CEM leukemia = test system: CCRF-CEM leukemia
MDA-N = test system: MDA-N
UACC-62 melanoma = test system: UACC-62 melanoma
SK-OV-3 ovarian = test system: SK-OV-3 ovarian
A498 renal = test system: A498 renal
EKVX NSCLC = test system: EKVX NSCLC
NCI-H23 lung = test system: NCI-H23 lung
SK-MEL-5 melanoma = test system: SK-MEL-5 melanoma
SF-539 CNS = test system: SF-539 CNS
HOP-62 NSCLC = test system: HOP-62 NSCLC
MDA-MB-231 breast = test system: MDA-MB-231 breast
SNB-75 CNS = test system: SNB-75 CNS
SN12C renal = test system: SN12C renal
LOX IMVI melanoma = test system: LOX IMVI melanoma
SR leukemia = test system: SR leukemia
U251 CNS = test system: U251 CNS
NCI-H522 lung = test system: NCI-H522 lung
UACC-257 melanoma = test system: UACC-257 melanoma
UO-31 renal = test system: UO-31 renal
SF-295 CNS = test system: SF-295 CNS
COLO 205 colon = test system: COLO 205 colon
OVCAR-5 ovarian = test system: OVCAR-5 ovarian
BT-549 breast = test system: BT-549 breast
SW-620 colon = test system: SW-620 colon
ACHN renal = test system: ACHN renal
OVCAR-3 ovarian = test system: OVCAR-3 ovarian
HCT-15 colon = test system: HCT-15 colon
SK-MEL-2 melanoma = test system: SK-MEL-2 melanoma
PC-3 prostate = test system: PC-3 prostate
K-562 leukemia = test system: K-562 leukemia
MALME-3M melanoma = test system: MALME-3M melanoma
SK-MEL-28 melanoma = test system: SK-MEL-28 melanoma
NCI-H460 lung = test system: NCI-H460 lung
NCI-H226 lung = test system: NCI-H226 lung
IGROV1 ovarian = test system: IGROV1 ovarian
OVCAR-8 ovarian = test system: OVCAR-8 ovarian
RPMI-8226 leukemia = test system: RPMI-8226 leukemia
TK-10 renal = test system: TK-10 renal
CAKI-1 renal = test system: CAKI-1 renal
HCT-116 colon = test system: HCT-116 colon
T-47D breast = test system: T-47D breast
A549 NSCLC = test system: A549 NSCLC
MCF7 breast = test system: MCF7 breast
SNB-19 CNS = test system: SNB-19 CNS
SF-268 CNS = test system: SF-268 CNS
DU-145 prostate = test system: DU-145 prostate
KM12 colon = test system: KM12 colon
M14 melanoma = test system: M14 melanoma
MOLT-4 leukemia = test system: MOLT-4 leukemia
HT29 colon = test system: HT29 colon
OVCAR-4 ovarian = test system: OVCAR-4 ovarian
HCC-2998 colon = test system: HCC-2998 colon
NCI/ADR-RES ovarian = test system: NCI/ADR-RES ovarian
HOP-92 NSCLC = test system: HOP-92 NSCLC
HL-60(TB) leukemia = test system: HL-60(TB) leukemia

COc1cc(/C=C2\CCC/C(=C\c3cc(OC)c(O)c(OC)c3)C2=O)cc(OC)c1O
TGI (RXF 393 renal): 3.22 µM
TGI (HS 578T breast): > 100 µM
GI50 (MDA-MB-435): 2.57 µM
TGI (MDA-MB-435): 75 µM and > 100 µM
GI50 (786-0 renal): 3.9 µM
TGI (CCRF-CEM leukemia): 17.8 µM
GI50 (MDA-N): 2.52 µM
TGI (MDA-N): 75 µM and > 100 µM
TGI (UACC-62 melanoma): 5.2 µM
TGI (SK-OV-3 ovarian): > 100 µM
GI50 (A498 renal): 2.18 µM
TGI (A498 renal): 3.21 µM and 4.81 µM
GI50 (EKVX NSCLC): 5.14 µM
TGI (EKVX NSCLC): 75 µM and > 100 µM
TGI (NCI-H23 lung): 3.5 µM and 4.19 µM
GI50 (SK-MEL-5 melanoma): 2.83 µM
TGI (SK-MEL-5 melanoma): 75 µM and 19.6 µM
TGI (SF-539 CNS): > 100 µM
GI50 (HOP-62 NSCLC): 5.93 µM
TGI (MDA-MB-231 breast): 10.8 µM
TGI (SNB-75 CNS): > 100 µM
GI50 (SN12C renal): 4.37 µM
TGI (SN12C renal): 75 µM and > 100 µM
GI50 (LOX IMVI melanoma): 1.53 µM
GI50 (SR leukemia): 1.73 µM
TGI (SR leukemia): 75 µM and 28.8 µM
TGI (U251 CNS): 2.76 µM and 3.14 µM
GI50 (NCI-H522 lung): 1.24 µM
TGI (NCI-H522 lung): 3.5 µM and 2.85 µM
GI50 (UACC-257 melanoma): 2.92 µM
TGI (UACC-257 melanoma): 75 µM and > 100 µM
GI50 (UO-31 renal): 2.05 µM
TGI (UO-31 renal): 3.46 µM and 4.97 µM
GI50 (SF-295 CNS): 4.98 µM
TGI (COLO 205 colon): 73.8 µM and 32.8 µM
GI50 (OVCAR-5 ovarian): 5.22 µM
TGI (OVCAR-5 ovarian): 7.4 µM and 63.3 µM
TGI (BT-549 breast): 5.92 µM
TGI (SW-620 colon): 75 µM and > 100 µM
GI50 (ACHN renal): 1.85 µM
TGI (ACHN renal): 2.31 µM and 3.94 µM
GI50 (OVCAR-3 ovarian): 3.47 µM
TGI (HCT-15 colon): 3.45 µM
GI50 (SK-MEL-2 melanoma): 1.63 µM
TGI (SK-MEL-2 melanoma): 11.8 µM and 4.19 µM
GI50 (PC-3 prostate): 1.24 µM
GI50 (K-562 leukemia): 2.26 µM
TGI (K-562 leukemia): 75 µM and > 100 µM
TGI (MALME-3M melanoma): 4.38 µM and 3.3 µM
GI50 (SK-MEL-28 melanoma): 3.12 µM
TGI (SK-MEL-28 melanoma): 75 µM and 24.8 µM
TGI (NCI-H460 lung): 10.7 µM
GI50 (NCI-H226 lung): 3.91 µM
TGI (NCI-H226 lung): 47.9 µM and > 100 µM
TGI (IGROV1 ovarian): 3.89 µM
TGI (OVCAR-8 ovarian): 75 µM
TGI (RPMI-8226 leukemia): 7.54 µM
TGI (TK-10 renal): > 100 µM
GI50 (CAKI-1 renal): 2.51 µM
TGI (CAKI-1 renal): 4.38 µM and 7.62 µM
GI50 (HCT-116 colon): 2.56 µM
TGI (T-47D breast): 75 µM
GI50 (A549 NSCLC): 3.14 µM
GI50 (MCF7 breast): 4 µM
TGI (MCF7 breast): 75 µM and > 100 µM
GI50 (SNB-19 CNS): 3.61 µM
TGI (SNB-19 CNS): 75 µM and > 100 µM
TGI (SF-268 CNS): > 100 µM
TGI (DU-145 prostate): 6.01 µM
TGI (KM12 colon): 8.33 µM
GI50 (M14 melanoma): 2.9 µM
TGI (M14 melanoma): 75 µM and 69.4 µM
GI50 (MOLT-4 leukemia): 2.97 µM
TGI (MOLT-4 leukemia): 75 µM and 36.5 µM
GI50 (HT29 colon): 3.8 µM
TGI (HT29 colon): 38 µM and > 100 µM
GI50 (OVCAR-4 ovarian): 8.24 µM
TGI (OVCAR-4 ovarian): 75 µM and > 100 µM

CCCCc1cc2c(C)cc(=O)oc2c(O)c1O
TGI (RXF 393 renal): 59.6 µM
TGI (HS 578T breast): 59.5 µM
TGI (MDA-MB-435): > 100 µM
TGI (786-0 renal): 99.4 µM
TGI (CCRF-CEM leukemia): 56.3 µM
TGI (HCC-2998 colon): 15.7 µM
TGI (MDA-N): > 100 µM
TGI (A498 renal): 72 µM
TGI (EKVX NSCLC): > 100 µM
TGI (NCI-H23 lung): > 100 µM
TGI (SK-MEL-5 melanoma): 46.5 µM
TGI (SF-539 CNS): 47.4 µM
TGI (HOP-62 NSCLC): 65.8 µM
TGI (MDA-MB-231 breast): 28 µM
TGI (SNB-75 CNS): > 100 µM
TGI (NCI/ADR-RES ovarian): 56.4 µM
TGI (SN12C renal): > 100 µM
TGI (LOX IMVI melanoma): 61 µM
TGI (SR leukemia): 40.2 µM
TGI (U251 CNS): 56.1 µM
TGI (NCI-H522 lung): 49 µM
TGI (UACC-257 melanoma): 66.1 µM
TGI (UO-31 renal): 54.6 µM
TGI (SF-295 CNS): 67.3 µM
TGI (COLO 205 colon): 56.5 µM
TGI (OVCAR-5 ovarian): > 100 µM
TGI (HOP-92 NSCLC): 59.6 µM
TGI (BT-549 breast): 33.6 µM
TGI (SW-620 colon): 62.2 µM
TGI (ACHN renal): 94 µM
TGI (OVCAR-3 ovarian): 82 µM
TGI (HCT-15 colon): > 100 µM
TGI (SK-MEL-2 melanoma): > 100 µM
TGI (PC-3 prostate): 68.1 µM
TGI (K-562 leukemia): 73.5 µM
TGI (MALME-3M melanoma): 88.9 µM
TGI (SK-MEL-28 melanoma): > 100 µM
TGI (NCI-H460 lung): > 100 µM
TGI (NCI-H226 lung): 67.9 µM
TGI (IGROV1 ovarian): 51.7 µM
TGI (OVCAR-8 ovarian): > 100 µM
TGI (RPMI-8226 leukemia): 43.3 µM
TGI (TK-10 renal): > 100 µM
TGI (CAKI-1 renal): 53.3 µM
TGI (HCT-116 colon): 96.1 µM
TGI (T-47D breast): 82.3 µM
TGI (A549 NSCLC): > 100 µM
TGI (HL-60(TB) leukemia): 38.4 µM
TGI (MCF7 breast): 45.7 µM
TGI (SNB-19 CNS): > 100 µM
TGI (SF-268 CNS): > 100 µM
TGI (DU-145 prostate): > 100 µM
TGI (KM12 colon): 64.3 µM
TGI (M14 melanoma): 85 µM
TGI (MOLT-4 leukemia): > 100 µM
TGI (HT29 colon): 77 µM
TGI (OVCAR-4 ovarian): > 100 µM

CCCn1c(SC)nc(COC(=O)NC)c1COC(=O)NC
TGI (HS 578T breast): > 100 µM
TGI (MDA-MB-435): > 100 µM
TGI (786-0 renal): > 100 µM
TGI (CCRF-CEM leukemia): > 100 µM
TGI (MDA-N): > 100 µM
TGI (UACC-62 melanoma): > 100 µM
TGI (SK-OV-3 ovarian): > 100 µM
TGI (A498 renal): > 100 µM
TGI (EKVX NSCLC): > 100 µM
TGI (NCI-H23 lung): > 100 µM
TGI (SK-MEL-5 melanoma): > 100 µM
TGI (SF-539 CNS): > 100 µM
TGI (HOP-62 NSCLC): > 100 µM
TGI (MDA-MB-231 breast): > 100 µM
TGI (SNB-75 CNS): > 100 µM
TGI (NCI/ADR-RES ovarian): > 100 µM
TGI (SN12C renal): > 100 µM
TGI (LOX IMVI melanoma): > 100 µM
TGI (SR leukemia): > 100 µM
TGI (NCI-H522 lung): > 100 µM
TGI (UACC-257 melanoma): > 100 µM
TGI (UO-31 renal): > 100 µM
TGI (SF-295 CNS): > 100 µM
TGI (COLO 205 colon): > 100 µM
TGI (OVCAR-5 ovarian): > 100 µM
TGI (BT-549 breast): > 100 µM
TGI (SW-620 colon): > 100 µM
TGI (ACHN renal): > 100 µM
TGI (OVCAR-3 ovarian): > 100 µM
TGI (HCT-15 colon): > 100 µM
TGI (SK-MEL-2 melanoma): > 100 µM
TGI (PC-3 prostate): > 100 µM
TGI (K-562 leukemia): > 100 µM
TGI (SK-MEL-28 melanoma): > 100 µM
TGI (NCI-H460 lung): > 100 µM
TGI (NCI-H226 lung): > 100 µM
TGI (IGROV1 ovarian): > 100 µM
TGI (OVCAR-8 ovarian): > 100 µM
TGI (RPMI-8226 leukemia): > 100 µM
TGI (TK-10 renal): > 100 µM
TGI (CAKI-1 renal): > 100 µM
TGI (HCT-116 colon): > 100 µM
TGI (T-47D breast): > 100 µM
TGI (A549 NSCLC): > 100 µM
TGI (HL-60(TB) leukemia): > 100 µM
TGI (MCF7 breast): > 100 µM
TGI (SNB-19 CNS): > 100 µM
TGI (SF-268 CNS): > 100 µM
TGI (DU-145 prostate): > 100 µM
TGI (KM12 colon): > 100 µM
TGI (M14 melanoma): > 100 µM
TGI (MOLT-4 leukemia): > 100 µM
TGI (HT29 colon): > 100 µM
TGI (OVCAR-4 ovarian): > 100 µM
